Literature values as cited in US12678540B2, “Chimeric peptide-modified SIS membrane, preparation method therefor and application thereof” (Beijing Biosis Healing Biological Technology Co., Ltd., priority 2021, dated 2026).

Test system: fibroblasts, epithelial cells and endothelial cells

Substance: Hst1: member of the histatins (HSTs); sequence SHREFPFYGDYGS contains minimal elements to promote cell migration
- migration or adhesion of fibroblasts, epithelial cells and endothelial cells: promote the migration or adhesion
